Assay results from patent US12533373B2, “β-glucan composition and use therefor” (Qingdao Conson Pharmaceutical Co., Ltd., priority 2019, dated 2026).
Values joined by “and” are separate entries in the source; they are usually repeats but may differ in a detail not shown here. Equal entries are not always repeated.

How the values were obtained:
[1] = test system: Mouse lung cancer Lewis cells; assay: mouse Lewis lung cancer residual cancer model; type: in vivo, C57BL/6 mice; settings: 5-FU 18 mg/kg
Description: Mouse lung cancer Lewis cells were amplified by culturing in DMEM high sugar medium containing 10% FBS. The cells were ready for the next step when entering the logarithmic growth phase. The cells at logarithmic growth phase were collected by centrifugation and counted. The cell concentration was adjusted and inoculated subcutaneously at 0.2 ml/mouse in the right axilla of C57BL/6 mice as breeder mouse. After grew to over 1000 mm^3, the tumors were removed aseptically, weighed, diluted by adding sodium chloride injection with mass to volume ratio of 1:4 and […], after conventional sterilization, inoculated subcutaneously to the axilla of the right forelimb of each mouse with 0.2 ml per mouse for passaging. After grew to over 1000 mm^3, the second generation tumors were taken aseptically, weighed, diluted by adding sodium chloride injection with mass to volume ratio of 1:4 and ground, and then inoculated subcutaneously to the back of mice at 0.2 ml per mouse after routine sterilization. The growths of mice were observed after inoculation, and screened according to the growth state of mice, and after screening, the mice were grouped randomly and administered.

[2] = test system: S180 mouse fibrosarcoma cells; assay: murine S180 sarcoma residual carcinoma model; type: in vivo, Kunming mice; settings: 5-FU 18 mg/kg
Description: S180 mouse fibrosarcoma cells were amplified by culturing in DMEM high sugar medium containing 10% FBS. The cells were ready for the next step when entering the logarithmic growth phase. The cells at logarithmic growth phase were collected by centrifugation and counted. The cell concentration was adjusted, and inoculated at 0.2 ml/mouse into the peritoneal cavity of Kunming mice as the first-generation breeder mouse. After rearing for one week, the ascites in peritoneal cavity of the first-generation breeder mouse were taken for centrifugation and count, the cell concentration was adjusted, and inoculated at 0.2 ml/mouse into the peritoneal cavity of Kunming mice as the second-generation breeder mouse, and after rearing for another week, the ascites in peritoneal cavity of the second-generation breeder mouse were taken for centrifugation and count, the cell concentration was adjusted, and inoculated at 0.2 ml/mouse into subcutaneous back of Kunming mice. The whole inoculation process was carried out aseptically in the ultra-clean workstation. After inoculation, the growth of mice was observed, and the mice were screened according to their growth state, and after screening, the mice were grouped randomly and administered.

[3] = test system: SW-480 human colon cancer transplanted tumors; assay: nude mice transplanted tumor model, SW-480; type: in vivo, BALB/c nude mice; settings: 5-FU 18 mg/kg, tail vein, twice a week
Description: The […] was resuscitated with liquid nitrogen and cultured in 5A medium containing 10% fetal bovine serum; the cells were expanded and cultured in culture flasks and collected by digestion after reaching the required cells number; the cells were diluted using 5A medium containing 10% fetal bovine serum into suspensions of 250 million cell/ml which was inoculated subcutaneously to the axilla of the right forelimb of each mouse with 0.2 ml per mouse after routine sterilization. When growing to tumors to about 1 g of tissue mass, the animal was sacrificed and the tumor was cut into 2-3 cubic millimeter pieces and implanted subcutaneously into nude mice for passaging by catheter method, and two consecutive passages were performed. HT-29, SW-480, DLD-1 and RKO cell lines listed in the table were modeled and experimented using the same method. Waiting for the tumors of the passaged tumor-bearing nude mice grown to about 1 g, the tumors were transplanted for modeling via the method described above, and the animals were randomly grouped and administration was started on the next day after transplantation.
The animals were grouped using the random grouping method, 8 animals each group.
The route of administration is via tail vein injection, and the amount of administration for each animal was determined based on the latest body weight prior to administration. […]

## O=c1[nH]cc(F)c(=O)[nH]1 [Example 5-FU, Fluorouracil]
[1]
  Tumor weight: 1.29 g and 1.24 g
[2]
  Inhibition rate: 85.30% and 66.85%
[3]
  Inhibition rate: 57.91%
  Tumor weight: 0.43 g
